Reference: patent publication US12624034B2, “Non-covalent modifiers of AKT1 and uses thereof” (Terremoto Biosciences, Inc., priority 2023, dated 2026)
Like-named read-outs stand apart in the source and are kept apart here.

Legend:
AKT2 = target: T1, AKT2 (Homo sapiens, UniProt P31751); experiment: Live cell AKT2 target engagement by NanoBRET competitive probe displacement in HEK293 cells; format: binding; conditions: 2 h at 37° C., read-out: AKT2 IC50
T1 construct: expressed in transfected cells; host or cells: HEK293

AKT1 WT = target: T2, AKT1 WT (Homo sapiens, UniProt P31749); experiment: Live cell AKT1 WT target engagement by NanoBRET competitive probe displacement in HEK293 cells; format: binding; conditions: 2 h at 37° C., read-out: AKT1 WT IC50
T2 construct: expressed in transfected cells; host or cells: HEK293

[1] = system: LAPC4 prostate cancer cells, which express the AKT1 E17K allele; experiment: Antiproliferative effects in LAPC4 cells (CellTiter Glo, 72 h); format: cell-based; conditions: read-out: LAPC4 proliferation IC50
Outline: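 Luminescent ATP read-out (CellTiter Glo) after 72 h compound exposure; 1,000 cells/well in IMDM + 12% FBS + 1% P/S. IC50 by Hill equation fit of luminescence vs. log(inhibitor).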

AKT1 E17K = target: T3, AKT1 E17K (Homo sapiens, UniProt P31749, E17K); experiment: Live cell AKT1 E17K target engagement by NanoBRET competitive probe displacement in HEK293 cells; format: binding; conditions: 2 h at 37° C.
T3 construct: expressed in transfected cells; host or cells: HEK293
Outline: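 Read-out: BRET ratio E600/E460 from luminescence at 460 and 600 nm, fitted to a log(inhibitor) vs. response Hill equation for IC50. Intact HEK293 cells expressing NanoLuc-tagged kinase, compound dilutions with ~EC50 ATP-competitive fluorescent tracer, 2 h, 37° C.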

[2] = NanoBRET live cell target engagement, HEK293 cells
[3] = NanoBRET competitive probe displacement, live HEK293 cells

T3 sequence (P31749 whole entry E17K): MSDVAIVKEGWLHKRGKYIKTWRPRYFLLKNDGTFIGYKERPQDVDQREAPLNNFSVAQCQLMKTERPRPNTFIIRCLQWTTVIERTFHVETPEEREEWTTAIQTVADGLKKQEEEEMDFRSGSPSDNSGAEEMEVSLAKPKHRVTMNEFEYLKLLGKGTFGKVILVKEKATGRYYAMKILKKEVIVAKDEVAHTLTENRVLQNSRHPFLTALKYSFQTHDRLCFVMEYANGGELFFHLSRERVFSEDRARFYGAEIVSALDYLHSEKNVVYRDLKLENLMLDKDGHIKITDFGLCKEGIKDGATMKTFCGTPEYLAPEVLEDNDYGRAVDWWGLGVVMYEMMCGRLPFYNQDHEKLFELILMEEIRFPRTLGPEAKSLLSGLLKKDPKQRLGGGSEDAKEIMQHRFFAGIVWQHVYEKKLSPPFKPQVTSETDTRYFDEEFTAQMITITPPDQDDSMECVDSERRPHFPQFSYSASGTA
T1 sequence (P31751 whole entry): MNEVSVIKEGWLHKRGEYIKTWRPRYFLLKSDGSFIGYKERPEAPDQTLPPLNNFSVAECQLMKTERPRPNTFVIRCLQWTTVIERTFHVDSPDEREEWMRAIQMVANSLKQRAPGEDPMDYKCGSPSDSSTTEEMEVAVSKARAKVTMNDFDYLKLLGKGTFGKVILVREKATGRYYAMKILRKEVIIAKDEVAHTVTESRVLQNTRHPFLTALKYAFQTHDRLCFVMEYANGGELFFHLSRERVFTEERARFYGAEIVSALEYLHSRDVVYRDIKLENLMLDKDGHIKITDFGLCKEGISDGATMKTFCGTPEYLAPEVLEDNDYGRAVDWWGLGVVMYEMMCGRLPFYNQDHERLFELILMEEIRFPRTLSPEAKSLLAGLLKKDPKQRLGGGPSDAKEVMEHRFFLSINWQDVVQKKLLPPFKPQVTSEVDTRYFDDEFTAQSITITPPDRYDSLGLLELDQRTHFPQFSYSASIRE
T2 sequence (P31749 whole entry): as the sequence (P31749 whole entry E17K) above, with K17E counted along it

| SMILES | IC50 (AKT2; [2]) | IC50 (AKT1 WT; [2]) | IC50 ([1]; Homo sapiens, LAPC4, 72 h) | IC50 (AKT1 E17K; [2]) | IC50 (AKT2; [3]) | IC50 (AKT1 WT; [3]) | IC50 (AKT1 E17K; [3]) | IC50 [1] |
| --- | --- | --- | --- | --- | --- | --- | --- | --- |
| Nc1ncccc1-c1nc2ccc(-n3cccn3)nc2n1-c1ccc2c(c1)CC[C@@H]2NC(=O)c1ccnc(OC(F)(F)F)c1 [Compound 64, (S)—N-(5-(2-(2-aminopyridin-3-yl)-5-(1H-pyrazol-1-yl)-3H-imidazo[4,5-b]pyridin-3-yl)-2,3-dihydro-1H-inden-1-yl)-2-(trifluoromethoxy)isonicotinamide] | 0.183 µM | 0.00463 µM | 2.62 µM | 0.159 µM |  |  |  |  |
| Nc1ncccc1-c1nc2ccc(-n3nccn3)nc2n1-c1ccc2c(c1)CC[C@@H]2NC(=O)c1cnc(C(F)F)s1 [Compound 427] |  |  | 1.71 µM |  | 1.08 µM | 0.00956 µM | 0.101 µM |  |
| O=C(N[C@H]1CCc2cc(-n3c(-c4ccccc4)nc4ccc(-c5ccn(C6CC6)n5)nc43)ccc21)c1ccc(C(F)F)nc1 [Compound 432] |  |  | 3.5 µM |  | 1.45 µM | 0.0146 µM | 0.145 µM |  |
| Nc1ncccc1-c1nc2ccc(-c3ccccc3)nc2n1-c1ccc2c(c1)CC[C@@H]2NC1CCN(C(=O)C2CC2)CC1 [Compound 391] | 0.103 µM | 0.0197 µM | 2.25 µM | 0.257 µM |  |  |  |  |
| Nc1ncccc1-c1nc2ccc(-n3cccn3)nc2n1-c1ccc2c(c1)CC[C@@H]2NC1CCN(c2ccccn2)C1 (stereo partly shown) [Compound 388] | 0.674 µM | 0.0287 µM |  | 0.247 µM |  |  |  | 3.14 µM |
| Nc1ncccc1-c1nc2ccc(-n3cccn3)nc2n1-c1ccc2c(c1)CC[C@@H]2NC(=O)c1cnc(C(F)F)cn1 [Compound 322] | 1.33 µM | 0.0635 µM | 2.55 µM | 0.274 µM |  |  |  |  |
| COc1cc(C(=O)N[C@H]2CCc3cc(-n4c(-c5cccnc5N)nc5ccc(-n6cccn6)nc54)ccc32)ccn1 [Compound 25, (S)—N-(5-(2-(2-aminopyridin-3-yl)-5-(1H-pyrazol-1-yl)-3H-imidazo[4,5-b]pyridin-3-yl)-2,3-dihydro-1H-inden-1-yl)-2-methoxyisonicotinamide] | 0.00984 µM | 0.00211 µM | 0.576 µM | 0.00743 µM |  |  |  |  |
| CN(C)c1cc(C(=O)N[C@H]2CCc3cc(-n4c(-c5cccnc5N)nc5ccc(-n6cccn6)nc54)ccc32)ccn1 [Compound 63, (S)—N-(5-(2-(2-aminopyridin-3-yl)-5-(1H-pyrazol-1-yl)-3H-imidazo[4,5-b]pyridin-3-yl)-2,3-dihydro-1H-inden-1-yl)-2-(dimethylamino)isonicotinamide] | 0.0126 µM | 0.00257 µM | 0.97 µM | 0.0739 µM |  |  |  |  |
| Nc1ncccc1-c1nc2ccc(-n3cccn3)nc2n1-c1ccc2c(c1)CC[C@@H]2NC(=O)c1ccc(O)c(O)c1 [Compound 323] | 0.594 µM | 0.0456 µM | 0.713 µM | 0.112 µM |  |  |  |  |
| Nc1ncccc1-c1nc2ccc(-n3cccn3)nc2n1-c1ccc2c(c1)CC[C@@H]2NC(=O)c1cnc(C(F)F)c(Cl)c1 [Compound 365] | 0.0249 µM | 0.00858 µM | 0.444 µM | 0.0265 µM |  |  |  |  |
| COc1cc(C(=O)N[C@H]2CCc3cc(-n4c(-c5cccnc5N)nc5ccc(-n6nccn6)nc54)ccc32)ccn1 [Compound 321] | 0.207 µM | 0.00684 µM | 0.628 µM | 0.127 µM |  |  |  |  |
| COc1nccc(C(=O)N[C@H]2CCc3cc(-n4c(-c5cccnc5N)nc5ccc(-n6cccn6)nc54)ccc32)c1C [Compound 284] | 0.0105 µM | 0.0051 µM | 1.07 µM | 0.143 µM |  |  |  |  |
| Nc1ncccc1-c1nc2ccc(-n3cccn3)nc2n1-c1ccc2c(c1)CC[C@@H]2NC1CCN(c2ccccn2)C1 (stereo partly shown) [Compound 387] | 0.351 µM | 0.00948 µM | 4.43 µM | 0.376 µM |  |  |  |  |
| Nc1ncccc1-c1nc2ccc(-n3cccn3)nc2n1-c1ccc2c(c1)CC[C@@H]2NC(=O)c1ccnc2sccc12 [Compound 363] | 0.0672 µM | 0.00774 µM | 1.42 µM | 0.0579 µM |  |  |  |  |
| Nc1ncccc1-c1nc2ccc(-n3cccn3)nc2n1-c1ccc2c(c1)CC[C@@H]2n1cc(C2CC2)nn1 [Compound 221] | 0.449 µM | 0.0109 µM | 1.28 µM | 0.0058 µM |  |  |  |  |
| COc1cncc(C(=O)N[C@H]2CCc3cc(-n4c(-c5cccnc5N)nc5ccc(-n6cccn6)nc54)ccc32)c1 [Compound 21, (S)—N-(5-(2-(2-aminopyridin-3-yl)-5-(1H-pyrazol-1-yl)-3H-imidazo[4,5-b]pyridin-3-yl)-2,3-dihydro-1H-inden-1-yl)-5-methoxynicotinamide] | 0.0302 µM | 0.00446 µM | 1.05 µM | 0.0209 µM |  |  |  |  |
| C#Cc1ccc(C(=O)N[C@H]2CCc3cc(-n4c(-c5cccnc5N)nc5ccc(-n6cccn6)nc54)ccc32)cn1 [Compound 55, (S)—N-(5-(2-(2-aminopyridin-3-yl)-5-(1H-pyrazol-1-yl)-3H-imidazo[4,5-b]pyridin-3-yl)-2,3-dihydro-1H-inden-1-yl)-6-ethynylnicotinamide] | 0.0492 µM | 0.0162 µM | 1.51 µM | 0.107 µM |  |  |  |  |
| Nc1ncccc1-c1nc2ccc(-n3cccn3)nc2n1-c1ccc2c(c1)CC[C@@H]2NC(=O)c1cnc(C(F)F)c(F)c1 [Compound 62, (S)—N-(5-(2-(2-aminopyridin-3-yl)-5-(1H-pyrazol-1-yl)-3H-imidazo[4,5-b]pyridin-3-yl)-2,3-dihydro-1H-inden-1-yl)-6-(difluoromethyl)-5-fluoronicotinamide] | 0.0595 µM | 0.00497 µM | 0.692 µM | 0.064 µM |  |  |  |  |
| Cc1cc(C(=O)N[C@H]2CCc3cc(-n4c(-c5cccnc5N)nc5ccc(-n6cccn6)nc54)ccc32)cnc1C(F)F [Compound 60, (S)—N-(5-(2-(2-aminopyridin-3-yl)-5-(1H-pyrazol-1-yl)-3H-imidazo[4,5-b]pyridin-3-yl)-2,3-dihydro-1H-inden-1-yl)-6-(difluoromethyl)-5-methylnicotinamide] | 0.0315 µM | 0.0025 µM | 0.741 µM | 0.0621 µM |  |  |  |  |
| Nc1ncccc1-c1nc2ccc(-n3cccn3)nc2n1-c1ccc2c(c1)CC(F)[C@@H]2NC1CCN(C(=O)C2CC2)CC1 (single isomer, unassigned) [Compound 385, 3-{3-[(1R,2*)-1-[(1-cyclopropanecarbonylpiperidin-4-yl)amino]-2-fluoro-2,3-dihydro-1H-inden-5-yl]-5-(pyrazol-1-yl)imidazo[4,5-b]pyridin-2-yl}pyridin-2-amine] | 1.79 µM | 0.0343 µM | > 7.5 µM | > 0.856 µM |  |  |  |  |
| COc1cc(C(=O)N[C@H]2CCc3cc(-n4c(-c5cccnc5N)nc5ccc(-n6cccn6)nc54)ccc32)cc(C)n1 [Compound 280] | 0.00709 µM | 0.00275 µM | 0.516 µM | 0.0337 µM |  |  |  |  |
| CCC(=O)N1CCC(N[C@H]2CCc3cc(-n4c(-c5cccnc5N)nc5ccc(-n6cccn6)nc54)ccc32)CC1 [Compound 278] | 3.29 µM | 0.093 µM | > 10 µM | > 1 µM |  |  |  |  |
| Nc1ncccc1-c1nc2ccc(-n3cccn3)nc2n1-c1ccc2c(c1)CC[C@@H]2NC(=O)Cc1ccncc1 [Compound 49, N-[(1S)-5-[2-(2-aminopyridin-3-yl)-5-(pyrazol-1-yl)imidazo[4,5-b]pyridin-3-yl]-2,3-dihydro-1H-inden-1-yl]-2-(pyridin-4-yl)acetamide] | 2.84 µM | 0.199 µM | > 10 µM | > 1 µM |  |  |  |  |
| Nc1ncccc1-c1nc2ccc(-n3nccn3)nc2n1-c1ccc2c(c1)CC[C@@H]2NC(=O)c1cccnc1 [Compound 58, (S)—N-(5-(2-(2-aminopyridin-3-yl)-5-(2H-1,2,3-triazol-2-yl)-3H-imidazo[4,5-b]pyridin-3-yl)-2,3-dihydro-1H-inden-1-yl)nicotinamide] | 2.04 µM | 0.0307 µM | 1.9 µM | 0.157 µM |  |  |  |  |
| CCc1coc(C(=O)N[C@H]2CCc3cc(-n4c(-c5cccnc5N)nc5ccc(-n6cccn6)nc54)ccc32)n1 [Compound 57, (S)—N-(5-(2-(2-aminopyridin-3-yl)-5-(1H-pyrazol-1-yl)-3H-imidazo[4,5-b]pyridin-3-yl)-2,3-dihydro-1H-inden-1-yl)-4-ethyloxazole-2-carboxamide] | 0.0528 µM | 0.0234 µM | 1.32 µM | 0.192 µM |  |  |  |  |
| Cn1ccc(N2CCC(N[C@H]3CCc4cc(-n5c(-c6cccnc6N)nc6ccc(-n7cccn7)nc65)ccc43)CC2)n1 [Compound 276] | 1.2 µM | 0.0474 µM | > 10 µM | > 1 µM |  |  |  |  |
| Nc1ncccc1-c1nc2ccc(-n3cccn3)nc2n1-c1ccc2c(c1)CC(F)[C@@H]2NC1CCc2cnccc21 (single isomer, unassigned) [Compound 482] |  |  | 0.827 µM |  | 0.194 µM | 0.00539 µM | 0.14 µM |  |
| Nc1ncccc1-c1nc2ccc(-n3cccn3)nc2n1-c1ccc2c(c1)CC[C@@H]2NC(=O)c1ccc(O)c(C(F)(F)F)c1 [Compound 257] | 0.273 µM | 0.00826 µM | 1.43 µM | 0.0165 µM |  |  |  |  |
